{"source": "patent US20230235316A1", "about": "“MODEL FOR INSULIN RESISTANCE” (CHILDREN'S HOSPITAL MEDICAL CENTER, priority 2020, published 2023)", "type_in_all_cases": "cell-based, human", "key": {"[1]": {"system": "AKT phosphorylation in HLOs", "test": "AKT phosphorylation in HLOs after insulin (Western blot)", "conditions": "HLOs insulin-starved 24 hours; insulin 0, 10 and 100 ng/mL for 20 minutes", "experimental": "(§1) Insulin responsiveness of HLOs was analyzed using Western blotting and qPCR. The prepared HLOs were cultured under insulin starvation for 24 hours and then exposed to insulin.\nTo analyze phosphorylation of AKT activated downstream of insulin signaling. HLOs were treated with insulin at 0 ng/mL, 10 ng/mL and 100 ng/mL for 20 minutes, and then proteins were extracted for Western blot."}, "[2]": {"system": "sHLO", "test": "Insulin responsiveness in sHLO (Western blot, gene expression, PCK1, glucose production)", "experimental": "Insulin responsiveness in the sHLO was examined. To detect insulin responsiveness, insulin starvation of sHLO and HLO controls was performed for 24 hours, followed by insulin stimulation.\nInsulin signal analysis by Western blot was performed by treating with 100 nM insulin for 20 minutes. […] Insulin responsiveness of PCK1, CREB 1, and FOXO1 was not suppressed in sHLO (FIGS. 7J-K). […] Furthermore, glucose production was not inhibited after insulin stimulation in sHLO (FIG. 7L)."}, "[3]": {"system": "PCK1 reporter HLOs", "test": "PCK1 reporter (mScarlet fluorescence / luciferase) HLOs", "excerpt": "To visualize and quantify HLO insulin responsiveness, iPSCs were genetically edited using the CRISPR/Cas9 system to insert a reporter construct comprising mScarlet (fluorescence) and luciferase (luminescence) genes downstream of the gluconeogenesis regulatory gene PCK1, at the 3′ end in exon 10 (FIG. 5A). FIG. 5A also depicts a schematic of the reporter function. […] When gluconeogenesis is suppressed by exposure to insulin, the expression of mScarlet and luciferase also decreases in correlation with the downregulation of PCK1. […] However, it is envisioned that other reporter constructs, such as those using alternative reporters, can be used. Furthermore, alternative insulin pathway regulatory genes are depicted in FIG. 3C to be used in lieu of PCK1.\nHuman iPSCs were gene edited to insert the fluorescence and luminescence reporter construct to the 3′ end of PCK1. […] These gene edited iPSCs were subsequently differentiated into HLOs. […] Subsequently, 100 ng/mL of insulin was applied for 3 hours, and fluorescence and luciferase activity were measured. […] FIGS. 6C-D depicts the detection of PCK1-luciferase luminescence as measured by in vitro imaging.\nThe effect of insulin concentration was tested. PCK1-luciferase HLOs were starved of insulin for 24 hours and then treated with 0 nM, 10 nM, 100 nM, or 1000 nM of insulin for 1 hour for luciferase imaging.\nThe effect of insulin treatment time was tested. Insulin starved HLOs were treated with 100 nM of insulin for 1, 2, or 3 hours (with no insulin control)."}, "[4]": {"system": "HLOs", "test": "qPCR of gluconeogenesis and lipogenesis regulator genes in insulin-treated HLOs", "conditions": "HLOs insulin-starved 24 hours, insulin 100 ng/mL for 8 hours", "experimental": "as §1\nTo analyze insulin responsiveness of gluconeogenesis and lipogenesis regulator genes in HLOs, they were treated with insulin at 100 ng/mL for 8 hours, and then RNA was extracted for qPCR. In the insulin-treated HLOs, gluconeogenesis regulatory gene expression (FOXO1, CREB1, TFE1, PCK1) was suppressed by insulin stimulation (FIG. 4B). Conversely, lipogenesis regulatory gene expression (SREBP, FASN, ACLY, ACC) was induced by insulin stimulation (FIG. 4C)."}, "[5]": {"system": "HLO", "test": "Fatty acid induction of steatohepatitis phenotype in HLOs", "conditions": "300 µM oleic acid for 72 hours", "excerpt": "Fatty acid treatment induces a steatohepatitis phenotype in HLOs. […] DGAT½, which catalyzes the formation of triglycerides from diacylglycerol and acyl-CoA, was increased in sHLO relative to normal HLOs (FIG. 7D)."}, "[6]": {"system": "fatty liver HLO", "test": "Drug screening in fatty liver HLO: fat accumulation", "conditions": "HLO treated with fatty acids for 6 days; drug exposure 48 hours", "experimental": "(§2) HLO were treated with fatty acids for 6 days to induce a fatty liver phenotype. Then, candidate drugs were exposed to the sHLO for 48 hours."}, "[7]": {"system": "fatty liver HLO", "test": "Drug screening in fatty liver HLO: inflammatory gene expression", "conditions": "HLO treated with fatty acids for 6 days; drug exposure 48 hours", "experimental": "as §2"}}, "note": "Entries after “also recorded” stand apart in the source; their conditions may differ."}
{"compound": "insulin", "values": [{"measurement": "AKT phosphorylation", "setting": "[1]", "value": "induces AKT phosphorylation"}, {"measurement": "glucose production", "setting": "[2]; sHLO after insulin stimulation", "value": "not affected; also recorded: not inhibited"}, {"measurement": "insulin response of PCK1 and other gluconeogenesis genes", "setting": "[2]; sHLO insulin-starved 24 hours, then insulin stimulation", "value": "not responsive"}, {"measurement": "phosphorylation of AKT", "setting": "[2]; sHLO insulin-starved 24 hours, 100 nM insulin for 20 minutes, Western blot", "value": "inhibited in sHLO"}, {"measurement": "PCK1-mScarlet fluorescence and luciferase activity", "setting": "[3]; 100 ng/mL insulin for 3 hours after treatment with cAMP", "value": "downregulation; also recorded: decreased"}, {"measurement": "luciferase activity of PCK1", "setting": "[3]; HLOs insulin-starved 24 hours, 10 nM, 100 nM or 1000 nM insulin for 1 hour", "value": "decreased"}, {"measurement": "PCK1-luciferase activity", "setting": "[3]; cAMP-treated HLOs, 100 nM insulin for 3 hours", "value": "inhibited"}, {"measurement": "luciferase activity of PCK1", "setting": "[3]; insulin-starved HLOs, 100 nM insulin for 1, 2 or 3 hours", "value": "reduced after 1 hour of treatment"}, {"measurement": "gluconeogenesis regulatory gene expression (FOXO1, CREB1, TFE1, PCK1)", "setting": "[4]", "value": "suppression; also recorded: suppressed"}, {"measurement": "lipogenesis regulatory gene expression (SREBP, FASN, ACLY, ACC)", "setting": "[4]", "value": "induction; also recorded: induced"}]}
{"compound": "CCCCCCCC/C=C\\CCCCCCCC(=O)O", "note": "[oleic acid]", "values": [{"measurement": "fat accumulation", "setting": "[5]", "value": "induces fat accumulation"}]}
{"compound": "CN(C)C(=N)N=C(N)N", "note": "[metformin]", "values": [{"measurement": "fat accumulation", "setting": "[6]", "value": "improvement"}, {"measurement": "inflammatory gene expression (TNFa, NFKB1, NFKB2) / inflammatory response", "setting": "[7]", "value": "limited improvement"}]}
